Earlier results, collected in patent EP1574563B1, “Use of detergent tablets” (UNILEVER N.V., priority 2004, dated 2005).
Read-outs that look alike come from different tables or passages of the source.

[1] = other common materials, by contrast, at 20°C

Row | Compound | Water Solubility (g/100g) [1] | Water Solubility (g/100g) (highly water-soluble materials, grams of solid required to form a saturated solution in 100 grams of water at 20°C)
1 | O=P(O)(O)OP(=O)(O)OP(=O)(O)O [Sodium tripolyphosphate anhydrous] | 15 g/100g | 
2 | O=BO[O-].[Na+] [Sodium perborate anhydrous] | 3.7 g/100g | 
3 | NC(N)=O [Urea] |  | >100 g/100g
